Measurements reported in US20230391776A1, “AMIDE OXAZOLE COMPOUND” (MEDSHINE DISCOVERY INC., priority 2020, published 2023).

Key:
[1] = test system: TNF-α production in THP-1 cells; test: TNF-α ELISA in LPS-stimulated THP-1 cells; format: cell-based; settings: Homo sapiens, TNF-α in supernatant, 150 ng/mL LPS, 18 hours
Procedure: THP-1 human acute single cell leukemia cells were purchased from ATCC (Cat #TIB-202) and cultured at 37° C. in 5% CO2 incubator. The composition of medium was RPMI1640 (Gibco, Cat #22400-105), and the supplementary compositions were 10% FBS (Gibco, Cat #10091148); 1% PenStrep (Gibco, Cat #15140); 0.05 mM β-mercaptoethanol (Sigma, Cat #M6250).
TNF-α Elisa kit was used to detect the content of TNF-α in cell culture supernatant samples. TNF-α was produced by stimulating THP-1 cells with 150 ng/mL LPS (Sigma, Cat #L6529).
THP-1 cells cultured normally at logarithmic growth period were seeded in a 96-well plate (Corning #3599) at a certain concentration (1*10^5/100 μL) and then put into a cell incubator for incubation. After two hours, 16.7 μL of different concentrations of the compound to be tested (8*final concentration) were added and incubated in an incubator. After one hour, 16.7 μL of 1200 ng/mL LPS was added and incubated in an incubator. After 18 hours, the culture supernatant samples were collected by centrifugation, and the content of TNF-α could be detected by TNF-α Elisa kit. Finally, OD signals (OD450-OD570) were read on envision board reader.
The OD450-OD570 signal value was converted into a percentage inhibition rate.
Inhibition rate %=(ZPE−sample)/(ZPE−HPE)*100.
“HPE” referred to the OD450-OD570 signal value of the control well without LPS stimulated cells, and “ZPE” referred to the OD450-OD570 signal value of the control well with LPS stimulated cells. The IC50 value of the compound was calculated by XLFit in the excel add-in.
Y=Bottom+(Top−Bottom)/(1+(IC50/X)^HillSlope). Equation: […]

[2] = test system: OCI-LY10 human diffuse large B lymphoma cells; test: OCI-LY10 cell proliferation (Cell Titer Glo); format: cell-based; settings: 72 hours
Procedure: (§1) The tumor cell lines OCI-LY10 and TMD-8 were used to detect the effect of the compound of the disclosure on inhibiting tumor cell proliferation in vitro.
OCI-LY10 human diffuse large B lymphoma cells, from Nanjing Cobioer Biotechnology Co., Ltd
(§2) The compound was diluted with DMSO to a final concentration of 10 mM. The compound was freshly prepared and ready for use.
(§3) a) Logarithmic growth period cells were collected, counted, resuspended with complete culture medium, the cell concentration was adjusted to an appropriate concentration (determined according to the results of cell density optimization test), inoculated on 96-well plates, and 100 μL of cell suspension was added to each well. Cells were incubated in an incubator with 37° C., 100% relative humidity and 5% CO2 for 24 hours.
(§4) b) The compound to be tested was diluted to 50 μM with culture medium and then gradient diluted for 8 times. Cells were added with 25 μL/well. The final concentrations of the compound were from […], 3-fold gradient dilution, with a total of 9 concentration points.
(§5) c) Cells were incubated in an incubator with 37° C., 100% relative humidity and 5% CO2 for 72 hours;
(§6) d) 60 μL of CTG test reagent was added to the culture medium.
(§7) e) Shaked fully and reacted in the dark for 10 min. Luminescence was measured on ENVISION and the inhibition rate was calculated.
(§8) Cell growth inhibition rate %=[(RLUv−RLUs)/(RLUv−RLUb)]×100%

human IRAK4 = target: T1, human IRAK4 (Homo sapiens, UniProt Q9NWZ3); test: In vitro IRAK4 kinase activity, 33P isotope-labeled kinase assay; format: biochemical
T1 construct: purchased Reaction Biology Corp
T1 sequence (Q9NWZ3 1-460): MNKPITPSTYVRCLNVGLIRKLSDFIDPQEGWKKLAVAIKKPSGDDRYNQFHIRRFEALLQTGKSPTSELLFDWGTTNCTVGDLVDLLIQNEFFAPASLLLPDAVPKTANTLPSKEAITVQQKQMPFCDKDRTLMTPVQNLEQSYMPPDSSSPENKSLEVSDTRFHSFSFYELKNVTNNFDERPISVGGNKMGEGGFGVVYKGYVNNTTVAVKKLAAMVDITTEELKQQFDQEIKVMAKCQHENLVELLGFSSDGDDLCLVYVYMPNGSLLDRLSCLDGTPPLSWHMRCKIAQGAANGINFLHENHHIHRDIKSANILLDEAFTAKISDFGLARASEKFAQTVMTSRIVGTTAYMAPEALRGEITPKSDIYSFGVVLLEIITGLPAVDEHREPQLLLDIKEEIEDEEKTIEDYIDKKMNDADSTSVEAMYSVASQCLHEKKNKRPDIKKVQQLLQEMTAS
Procedure: The IC50 values were determined using ^33P isotope-labeled kinase activity assay (Reaction Biology Corp) to evaluate the inhibitory ability of the tested compounds on human IRAK4.
(§9) Buffer conditions: 20 mM Hepes (pH 7.5), 10 mM MgCl2, 1 mM EGTA, 0.02% Brij35, 0.02 mg/mL BSA, 0.1 mM Na3VO4, 2 mM DTT, 1% DMSO.
Test procedure: At room temperature, the tested compound was dissolved in DMSO and a 10 mM solution was prepared for use. The substrate was dissolved in a newly prepared buffer solution, and the tested IRAK4 kinase was added thereto and mixed evenly. The DMSO solution dissolved with the tested compound was added to the above mixed evenly reaction solution using acoustic technique (Echo 550). After incubation for 15 minutes, ^33P-ATP was added to initiate the reaction. The reaction was carried out at room temperature for 120 minutes, and the reaction mixture was dropped on P81 ion exchange filter paper (Whatman #3698-915). The filter paper was washed repeatedly with 0.75% phosphoric acid solution, and the radioactivity of phosphorylated substrate residues on the filter paper was determined. The kinase activity data were expressed by comparing the kinase activity of the group containing the tested compound with the kinase activity of the blank group (only containing DMSO), and the IC50 value was obtained by curve fitting by Prism4 software (GraphPad), the experimental results were shown in Table 2.

human BTK = target: T2, human BTK (Homo sapiens, UniProt Q06187); test: In vitro BTK kinase activity, 33P isotope-labeled kinase assay; format: biochemical
T2 construct: purchased Reaction Biology Corp
T2 sequence (Q06187 whole entry): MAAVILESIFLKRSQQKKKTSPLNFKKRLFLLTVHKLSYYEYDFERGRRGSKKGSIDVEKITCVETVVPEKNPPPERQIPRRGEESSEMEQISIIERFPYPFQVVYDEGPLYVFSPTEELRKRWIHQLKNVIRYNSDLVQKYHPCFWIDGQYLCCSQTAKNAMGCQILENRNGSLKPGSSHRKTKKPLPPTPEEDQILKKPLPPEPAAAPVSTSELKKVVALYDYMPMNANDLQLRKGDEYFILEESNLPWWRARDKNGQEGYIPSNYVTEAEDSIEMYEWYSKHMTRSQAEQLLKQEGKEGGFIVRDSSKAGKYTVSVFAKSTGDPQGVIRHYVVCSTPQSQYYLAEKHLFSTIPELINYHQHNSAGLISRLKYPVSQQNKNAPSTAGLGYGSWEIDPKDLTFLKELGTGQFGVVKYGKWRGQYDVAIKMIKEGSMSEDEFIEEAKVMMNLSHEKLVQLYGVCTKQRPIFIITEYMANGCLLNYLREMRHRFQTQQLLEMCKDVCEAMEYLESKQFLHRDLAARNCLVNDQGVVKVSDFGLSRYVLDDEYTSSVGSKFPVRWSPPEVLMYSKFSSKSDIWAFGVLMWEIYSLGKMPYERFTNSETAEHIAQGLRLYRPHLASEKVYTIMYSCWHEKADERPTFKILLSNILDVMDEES
Procedure: The IC50 values were determined using ^33P isotope-labeled kinase activity assay (Reaction Biology Corp) to evaluate the inhibitory ability of the tested compounds on human BTK.
as §9
Test procedure: At room temperature, the tested compound was dissolved in DMSO and a 10 mM solution was prepared for use. The substrate was dissolved in a newly prepared buffer solution, and the BTK kinase was added thereto and mixed evenly. The compound dissolved in DMSO was added to the kinase reaction mixture through Echo 550 (Acoustic technology; Nanoliter range). After incubation for 20 minutes at room temperature, ^33P-ATP was added to initiate the reaction. The reaction was carried out at room temperature for 2 hours, and the radioactivity of the reaction solution drop was detected by filtration-binding method with P81 ion exchange filter paper. The kinase activity data were expressed by comparing the kinase activity of the group containing the tested compound with the kinase activity of the blank group (only containing DMSO), and the IC50 value was obtained by curve fitting by Prism4 software (GraphPad), the experimental results were shown in Table 3.

[3] = test system: TMD-8 human diffuse large B lymphoma cells; test: TMD-8 cell proliferation (Cell Titer Glo); format: cell-based; settings: TMD8, 72 hours
Procedure: as §1
TMD-8 human diffuse large B lymphoma cells, from Nanjing Cobioer Biotechnology Co., Ltd
as §2, §3, §4, §5, §6, §7, §8

OCI-LY3 cell line = test: OCI-LY3 cell proliferation (CTG); format: cell-based; settings: Homo sapiens, 72 hours
Procedure: The tumor cell line OCI-LY3 was used to detect the effect of the compound of the disclosure on inhibiting tumor cell proliferation in vitro.
The tumor cell line used in this experiment was provided by Nanjing Cobioer Biotechnology Co., Ltd. See Table 6 below for specific information.
The OCI-LY3 cell line was cultured in the corresponding medium at 37° C. and 5% CO2, and the logarithmic growth period cells were used for experimental planking. The cells were collected and centrifuged at 800 rpm for 5 minutes, and the culture medium was re-suspended and spread in a 96-well plate. After being cultured overnight in 37° C., 5% CO2 incubator, drugs with different concentration gradients (10 μL of prepared diluent of test compound was added) were added, and incubated in 37° C., 5% CO2 incubator for 72 hours. The cell culture plate was incubated with CTG reagent at room temperature in the dark for 30 minutes and return to room temperature. CTG solution was added into the biosafety cabinet in the dark 100 μL/well, and was shaken and mixed evenly on plate shaker in the dark for 2 minutes, and incubated at room temperature in the dark for 10 minutes. The luminous value was read and recorded with Perkin Elmer Envision instrument.
The luminous value of the blank control group was subtracted from the luminous value measured at each drug concentration, the ratio of this value to DMSO group was taken as the cell inhibition rate (%). GraphPad software was used, the logarithm of drug concentration (log drug concentration) versus inhibition rate was plotted, and the IC50 value and 95% confidence value were automatically fitted and calculated by log (inhibitor) vs. response-variable slop (four parameters) algorithm of nonlinear regression by software.

CC(=O)Nc1cc(-c2nc(C(=O)Nc3cn4cc(CCC(C)(C)O)nc4cc3N3CCCCC3)co2)ccn1 [WX002]
IC50 [1]: 116 nM | IC50 [2]: 125 nM | IC50 (human IRAK4): 6.6 nM

COc1cc(-c2nc(C(=O)Nc3cn4cc(CCC(C)(C)O)nc4cc3N3CCCCC3)co2)ccn1 [WX003]
IC50 (human IRAK4): 0.6 nM | IC50 (human BTK): 15.4 nM

CN(C)c1cc(-c2nc(C(=O)Nc3cn4cc(CCC(C)(C)O)nc4cc3N3CCCCC3)co2)ccn1 [WX004]
IC50 (human IRAK4): 12 nM

CC(C)(O)CCc1cn2cc(NC(=O)c3coc(-c4ccnc5[nH]ccc45)n3)c(N3CCCCC3)cc2n1 [WX005]
IC50 [1]: 171 nM | IC50 [3]: 325 nM | IC50 (human IRAK4): 1.5 nM | IC50 (human BTK): 0.6 nM

CNc1cc(-c2nc(C(=O)Nc3cn4cc(CCC(C)(C)O)nc4cc3N3CCCCC3)co2)ccn1 [WX006]
IC50 [1]: 94 nM | IC50 [3]: 183 nM | IC50 [2]: 36 nM | IC50 (human IRAK4): 1 nM | IC50 (human BTK): 0.7 nM

Cc1cc(-c2nc(C(=O)Nc3cn4cc(CCC(C)(C)O)nc4cc3N3CCC4(CCOC4)CC3)co2)ccn1 [WX007]
IC50 (human IRAK4): 0.4 nM | IC50 (human BTK): 4.1 nM

Cc1cc(-c2nc(C(=O)Nc3cn4cc(CCC(C)(C)O)nc4cc3N3CCC4(CC3)COC4)co2)ccn1 [WX008]
IC50 (human IRAK4): 4.3 nM | IC50 (human BTK): 71 nM

Cc1cc(-c2nc(C(=O)Nc3cn4cc(C(C)(C)O)nc4cc3N3CCC(CO)CC3)co2)ccn1 [WX010]
IC50 (human IRAK4): 2.1 nM | IC50 (human BTK): 21.2 nM

CS(=O)(=O)CCc1cn2cc(NC(=O)c3coc(-c4ccnc(N)c4)n3)c(N3CCCCC3)cc2n1 [WX011]
IC50 [3]: 28 nM | IC50 [2]: 6 nM | IC50 (human IRAK4): 4.7 nM | IC50 (OCI-LY3 cell line): 26 nM | IC50 (human BTK): 1.3 nM

Cc1cc(-c2nc(C(=O)Nc3cn4cc(CCS(C)(=O)=O)nc4cc3-c3ccccc3)co2)ccn1 [WX012]
IC50 [2]: 20 nM | IC50 (human IRAK4): 0.4 nM | IC50 (human BTK): 14.4 nM

CN(C)CCc1cn2cc(NC(=O)c3coc(-c4ccnc(N)c4)n3)c(N3CCCCC3)cc2n1 [WX014]
IC50 [3]: 40 nM | IC50 [2]: 18 nM | IC50 (human IRAK4): 2.5 nM | IC50 (OCI-LY3 cell line): 41 nM | IC50 (human BTK): 0.5 nM

Cc1cc(-c2nc(C(=O)Nc3cn4cc(CCN(C)C)nc4cc3-c3ccccc3)co2)ccn1 [WX015]
IC50 [1]: 60 nM | IC50 [2]: 36 nM | IC50 (human IRAK4): 0.4 nM | IC50 (human BTK): 5.6 nM

Cc1cc(-c2nc(C(=O)Nc3cn4cc(C(C)(C)O)nc4nc3-c3ccccc3)co2)ccn1 [WX018]
IC50 (human IRAK4): 5.1 nM

Cc1cc(-c2nc(C(=O)Nc3cn4cc(C(C)(C)O)nc4cc3-c3ccccn3)co2)ccn1 [WX021]
IC50 (human IRAK4): 0.3 nM | IC50 (human BTK): 19.8 nM

COc1cc(-c2nc(C(=O)Nc3cn4cc(C(C)(C)O)nc4cc3-c3ccccc3)co2)ccn1 [WX022]
IC50 (human IRAK4): 0.1 nM | IC50 (human BTK): 45 nM

CNc1cc(-c2nc(C(=O)Nc3cn4cc(C(C)(C)O)nc4cc3-c3ccccc3)co2)ccn1 [WX023]
IC50 [2]: 14 nM | IC50 (human IRAK4): 0.1 nM | IC50 (human BTK): 1 nM

Cc1cc(-c2nc(C(=O)Nc3cn4cc(CC(N)=O)nc4cc3-c3ccccc3)co2)ccn1 [WX025]
IC50 (human IRAK4): 0.1 nM

Cc1nccc(-c2nc(C(=O)Nc3cn4cc(C(C)(C)O)nc4cc3-c3ccccc3)co2)c1F [WX028]
IC50 (human IRAK4): 0.1 nM

Cc1cc(-c2nc(C(=O)Nc3cn4cc(S(C)(=O)=O)nc4cc3-c3ccccc3)co2)ccn1 [WX029]
IC50 [2]: 48 nM | IC50 (human IRAK4): 0.1 nM

Cc1cc(-c2nc(C(=O)Nc3cn4cc(N=S(C)(C)=O)nc4cc3-c3ccccc3)co2)ccn1 [WX032]
IC50 (human IRAK4): 0.9 nM

Cc1cc(-c2nc(C(=O)Nc3cn4cc(CC(C)(C)O)nc4cc3-c3ccccc3)co2)ccn1 [WX038]
IC50 (human IRAK4): 0.3 nM
